Here are results for 34 compounds from patent US20030232986A1, “Inhibitors of caspases” (Vertex Pharmaceuticals Incorporated, priority 1998, published 2003).

Where a SMILES comes first, the peptide text is derived from it. The star is where a group is joined. Isovaleryl = CC(C)CC(=O)*; 4Abz = Nc1ccc(C(=O)O)cc1

One experiment addresses T1, Caspase-1 (Homo sapiens, UniProt P29466).
T1 sequence (P29466 120-297 limits assumed): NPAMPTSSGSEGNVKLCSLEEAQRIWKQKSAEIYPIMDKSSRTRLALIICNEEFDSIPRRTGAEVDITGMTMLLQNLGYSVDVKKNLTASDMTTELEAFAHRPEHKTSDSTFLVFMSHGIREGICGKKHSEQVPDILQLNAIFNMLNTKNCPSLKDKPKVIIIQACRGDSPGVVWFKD
T1 sequence (P29466 317-404 limits assumed): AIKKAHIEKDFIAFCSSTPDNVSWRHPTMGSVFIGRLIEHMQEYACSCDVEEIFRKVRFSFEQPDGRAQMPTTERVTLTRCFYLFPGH
As to the kind of experiment: Caspase-1 enzyme inhibition (Ki). In kind it is biochemical. The note with it: substrate Suc-YVAD-pNA 80 μM, 37° C., pH 7.5. The gist of the method: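 Ki obtained by fitting rate versus inhibitor concentration to the Morrison tight-binding equation for competitive inhibitors, with pNA release read at 405 nm at 37 °C. Substrate Suc-YVAD-pNA (80 μM final) added after 15 min enzyme–inhibitor preincubation in Tris pH 7.5 buffer with DTT and CHAPS.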

Experiment [1] concerns Human Peripheral Blood Mononuclear Cells (PBMC), mature IL-1β. Kind of experiment: PBMC cell assay: IL-1β assay with human peripheral blood mononuclear cells. The format is cell-based. The note with it: LPS-stimulated human PBMC, mature IL-1β in supernatant by ELISA. The gist of the method: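 Donor PBMC (suspension at 6×10^6 cells/ml) or adherent-enriched monocytes were stimulated with 5 ng/ml LPS (final) alongside 5–6 compound dilutions bracketing the ICE Ki, at 0.1% DMSO final, for 16–18 hr at 37° C, 5% CO2. Mature IL-1β in supernatants was measured by ELISA; IC50 was calculated relative to LPS-only controls.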
(In general: In an ELISA, binding on a coated surface is turned into a signal by an enzyme label.)

In experiment [2] the test system is Human whole blood, IL-1β production. As to the kind of experiment: Whole blood assay for IL-1β production. In kind it is cell-based. The note with it: LPS-stimulated whole blood, IL-1β by ELISA. An outline of the steps:
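LPS-stimulated (5.0 ng/ml final) human whole blood incubated with test compound in saline (or plasma/PBS-5% DMSO for hydrophobic compounds) at 30° C for 16-18 hr. Plasma IL-1β then measured by ELISA at 1:200 dilution, against no-LPS, no-inhibitor and vehicle controls.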

Consider `C[C@H](NC(=O)c1ccc2c(c1)OCO2)C(=O)N1CCC[C@H]1C(=O)N[C@H](C=O)CC(=O)O` [Example 7q], for which the inhibitory constant (Ki) at Caspase-1 lay within 10 to 1000 nM. Moreover, the IC50 was over 2000 nM in experiment [1] and under 2500 nM in experiment [2].
The matching figures for `C[C@H](NC(=O)c1ccc(N(C)C)cc1)C(=O)N1CCC[C@H]1C(=O)N[C@H](C=O)CC(=O)O` [Example 7s]: 10 to 1000 nM, 500 to 1000 nM and 2500 to 7500 nM.
The matching figures for `Cc1cc(C(=O)N[C@@H](C)C(=O)N2CCC[C@H]2C(=O)N[C@H](C=O)CC(=O)O)ccc1N` [Example 7t]: 10 to 1000 nM, over 2000 nM and 2500 to 7500 nM.
As to `C[C@H](NC(=O)c1ccc(C(N)=O)cc1)C(=O)N1CCC[C@H]1C(=O)N[C@H](C=O)CC(=O)O` [Example 7u], at Caspase-1, the Ki lay in the range of 10 to 1000 nM. Besides, the IC50 in experiment [1] was over 2000 nM; in experiment [2], 2500 to 7500 nM.
The matching figures for `CC(C)CC(=O)Nc1ccc(C(=O)N[C@@H](C)C(=O)N2CCC[C@H]2C(=O)N[C@H](C=O)CC(=O)O)cc1` [Example 7v] ({Isovaleryl-4Abz}-Ala-Pro-Asp-aldehyde): 10 to 1000 nM, over 2000 nM and under 2500 nM.
Take `Cc1cc(C(=O)N[C@@H](C)C(=O)N2CCC[C@H]2C(=O)N[C@H](C=O)CC(=O)O)cc(Cl)c1N` [Example 7w]: on Caspase-1, the Ki is under 10 nM. Besides, the IC50 in experiment [1] is 1000 to 2000 nM; in experiment [2], under 2500 nM.
The matching figures for `C[C@H](NC(=O)c1ccc(NS(C)(=O)=O)cc1)C(=O)N1CCC[C@H]1C(=O)N[C@H](C=O)CC(=O)O` [Example 7x]: 10 to 1000 nM, over 2000 nM and over 7500 nM.
The matching figures for `C[C@H](NC(=O)c1ccc(N)c(OC(F)(F)F)c1)C(=O)N1CCC[C@H]1C(=O)N[C@H](C=O)CC(=O)O` [Example 7y]: 10 to 1000 nM, over 2000 nM and over 7500 nM.
The matching figures for `CC(=O)Nc1c(Cl)cc(C(=O)N[C@@H](C)C(=O)N2CCC[C@H]2C(=O)N[C@H](C=O)CC(=O)O)cc1Cl` [Example 7z]: 10 to 1000 nM, 1000 to 2000 nM and under 2500 nM.
`COc1ccc(C(=O)N[C@H](C(=O)N2C[C@H](NC(C)=O)C[C@H]2C(=O)N[C@H](C=O)CC(=O)O)C(C)C)cc1` [Example 9a] registered an inhibition constant (Ki) at Caspase-1 of 10 to 1000 nM. Moreover, the 50% inhibitory concentration (IC50) in experiment [1] is 500 to 1000 nM; in experiment [2], 2500 to 7500 nM.
The corresponding values for `COc1ccc(C(=O)N[C@H](C(=O)N2C[C@H](NC(=O)NC(C)C)C[C@H]2C(=O)N[C@H](C=O)CC(=O)O)C(C)C)cc1` [Example 9b] are under 10 nM, 500 to 1000 nM and 2500 to 7500 nM.
`CC(C)NC(=O)N[C@@H]1C[C@@H](C(=O)N[C@H](C=O)CC(=O)O)N(C(=O)[C@@H](NC(=O)c2nccc3ccccc23)C(C)C)C1` [Example 9c] gave an inhibitory constant (Ki) at Caspase-1 of under 10 nM. Moreover, the IC50 in experiment [1] was under 500 nM; in experiment [2], under 2500 nM.
The corresponding values for `CC(C)[C@H](NC(=O)c1nccc2ccccc12)C(=O)N1C[C@H](NS(C)(=O)=O)C[C@H]1C(=O)N[C@H](C=O)CC(=O)O` [Example 9d] are under 10 nM, 500 to 1000 nM and under 2500 nM.
With `COC(=O)N[C@@H]1C[C@@H](C(=O)N[C@H](C=O)CC(=O)O)N(C(=O)[C@@H](NC(=O)c2ccc(OC)cc2)C(C)C)C1` [Example 9e], the Ki on Caspase-1 was under 10 nM. Besides, the IC50 in experiment [1] was in the range of 1000 to 2000 nM; in experiment [2], 2500 to 7500 nM.
The corresponding values for `COC(=O)N[C@@H]1C[C@@H](C(=O)N[C@H](C=O)CC(=O)O)N(C(=O)[C@@H](NC(=O)c2nccc3ccccc23)C(C)C)C1` [Example 9f] are under 10 nM, 500 to 1000 nM and under 2500 nM.
The corresponding values for `CC(=O)N[C@@H]1C[C@@H](C(=O)N[C@H](C=O)CC(=O)O)N(C(=O)[C@@H](NC(=O)c2nccc3ccccc23)C(C)C)C1` [Example 9g] are under 10 nM, 1000 to 2000 nM and 2500 to 7500 nM.
The matching figures for `Cc1cc(C(=O)N[C@H](C(=O)N2CCNCC2C(=O)N[C@H](C=O)CC(=O)O)C(C)C)cc(C)c1O` (stereo partly drawn) [Example 15a]: under 10 nM, over 2000 nM and 2500 to 7500 nM.
In the case of `CC(C)[C@H](NC(=O)c1nccc2ccccc12)C(=O)N1CCNCC1C(=O)N[C@H](C=O)CC(=O)O` (stereo partly drawn) [Example 15b], at Caspase-1, the inhibitory constant (Ki) was under 10 nM. Moreover, the values for the IC50 in experiment [1] and in experiment [2] were 1000 to 2000 nM and 2500 to 7500 nM, respectively.
`COc1ccc(C(=O)N[C@H](C(=O)N2CCNC[C@H]2C(=O)N[C@H](C=O)CC(=O)O)C(C)C)cc1` [Example 15c] showed a Ki at Caspase-1 of under 10 nM. Further, the concentration for half-maximal inhibition (IC50) in experiment [1] was 500 to 1000 nM; in experiment [2], under 2500 nM.
For the compound `C[C@H](NC(=O)c1ccc(N)c(Cl)c1)C(=O)N1CCNC[C@H]1C(=O)N[C@H](C=O)CC(=O)O` [Example 16b], on Caspase-1, the Ki was under 10 nM. Further, the IC50 in experiment [1] was 1000 to 2000 nM; in experiment [2] it was under 2500 nM.
As for `COCC(=O)N1CCN(C(=O)[C@H](C)NC(=O)c2nccc3ccccc23)[C@H](C(=O)N[C@H](C=O)CC(=O)O)C1` [Example 18a], the Ki on Caspase-1 lay within 10 to 1000 nM. Further, the figures for the IC50 in experiment [1] and in experiment [2] were 500 to 1000 nM and under 2500 nM, respectively.
As for `CC(C)S(=O)(=O)N1CCN(C(=O)[C@H](C)NC(=O)c2nccc3ccccc23)[C@H](C(=O)N[C@H](C=O)CC(=O)O)C1` [Example 18b], the Ki on Caspase-1 was under 10 nM. In addition, the IC50 in experiment [1] is 500 to 1000 nM; in experiment [2] it was under 2500 nM.
In turn, `C[C@H](NC(=O)c1nccc2ccccc12)C(=O)N1CCN(C(N)=O)C[C@H]1C(=O)N[C@H](C=O)CC(=O)O` [Example 18c] registered a Ki on Caspase-1 of 10 to 1000 nM. For the same compound, the values for the 50% inhibitory concentration (IC50) in experiment [1] and in experiment [2] were 500 to 1000 nM and under 2500 nM, respectively.
Turning to `CC(=O)N1CCN(C(=O)[C@H](C)NC(=O)c2nccc3ccccc23)[C@H](C(=O)N[C@H](C=O)CC(=O)O)C1` [Example 18d], at Caspase-1, the Ki fell in the range of 10 to 1000 nM. The figures for the IC50 in experiment [1] and in experiment [2] were 500 to 1000 nM and under 2500 nM, respectively.
The matching figures for `CC(C)NC(=O)N1CCN(C(=O)[C@H](C)NC(=O)c2nccc3ccccc23)[C@H](C(=O)N[C@H](C=O)CC(=O)O)C1` [Example 18e]: under 10 nM, 1000 to 2000 nM and under 2500 nM.
The matching figures for `CC(C)(C)[C@H](NC(=O)c1nccc2ccccc12)C(=O)N1CCC[C@H]1C(=O)N[C@H](C=O)CC(=O)O` [Example 20a]: under 10 nM, 500 to 1000 nM and under 2500 nM.
The matching figures for `CC(C)(C)[C@H](NC(=O)c1cccc2ccccc12)C(=O)N1CCC[C@H]1C(=O)N[C@H](C=O)CC(=O)O` [Example 20b]: under 10 nM, 500 to 1000 nM and over 7500 nM.
For `CCC(C)[C@H](NC(=O)c1nccc2ccccc12)C(=O)N1CCC[C@H]1C(=O)N[C@H](C=O)CC(=O)O` (stereo partly drawn) [Example 20c], the Ki on Caspase-1 is under 10 nM. In addition, the concentration for half-maximal inhibition (IC50) in experiment [1] lay in the range of 1000 to 2000 nM; in experiment [2], 2500 to 7500 nM.
The matching figures for `C[C@@H](O)[C@H](NC(=O)c1nccc2ccccc12)C(=O)N1CCC[C@H]1C(=O)N[C@H](C=O)CC(=O)O` [Example 20d]: 10 to 1000 nM, over 2000 nM and 2500 to 7500 nM.
Compound `CC[C@H](NC(=O)c1nccc2ccccc12)C(=O)N1CCC[C@H]1C(=O)N[C@H](C=O)CC(=O)O` [Example 20e] yielded a Ki on Caspase-1 of under 10 nM. Besides, the IC50 in experiment [1] is 1000 to 2000 nM; in experiment [2], 2500 to 7500 nM.
The matching figures for `CCC(C)[C@H](NC(=O)c1cc(Cl)c(O)c(Cl)c1)C(=O)N1CCC[C@H]1C(=O)N[C@H](C=O)CC(=O)O` (stereo partly drawn) [Example 20k]: under 10 nM, under 500 nM and under 2500 nM.
The corresponding values for `C[C@@H](O)[C@H](NC(=O)c1cc(Cl)c(O)c(Cl)c1)C(=O)N1CCC[C@H]1C(=O)N[C@H](C=O)CC(=O)O` [Example 20l] are under 10 nM, 500 to 1000 nM and under 2500 nM.
Turning to `O=C[C@H](CC(=O)O)NC(=O)[C@@H]1CCCN1C(=O)[C@H](Cc1cccnc1)NC(=O)c1cc(Cl)c(O)c(Cl)c1` [Example 20n], the Ki on Caspase-1 is under 10 nM. The IC50 in experiment [1] is 500 to 1000 nM; in experiment [2] it was under 2500 nM.
The matching figures for `CSC[C@H](NC(=O)c1cc(Cl)c(O)c(Cl)c1)C(=O)N1CCC[C@H]1C(=O)N[C@H](C=O)CC(=O)O` [Example 20o]: under 10 nM, under 500 nM and under 2500 nM.

The term Ki denotes the dissociation constant of the complex between target and ligand, obtained from inhibition or displacement. By IC50 is commonly meant the midpoint of a concentration-inhibition curve. A low value points to higher potency.
